Assay results from the supplement of paper PMC10307832.

Compound: NCC(=O)Nc1ccc(-n2nc(C(F)(F)F)cc2-c2ccc3c(ccc4ccccc43)c2)cc1 + Cc1nc(Nc2ncc(C(=O)Nc3c(C)cccc3Cl)s2)cc(N2CCN(CCO)CC2)n1 [Dasatinib] (partner 0.075 µM)
Assay: relative viability (nuclei count vs DMSO), 5 days (fraction); higher = more cells survive
How it was run: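 After 5 days of treatment, lung cancer cells in 1536-well plates were fixed and stained in a single step (final 0.05% Triton X-100, 1% formaldehyde, 1 ug/ml Hoechst) and their nuclei counted on 4× images. Treatment had been applied by pin tool the day after seeding as one drug alone or as a fixed anchor-drug dose with five library-drug doses (not always all listed) in √10 steps. Relative viability is the nuclei count of treated wells divided by that of vehicle wells, and values are medians of duplicate plates.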

Cell Line HCC-827 has a relative viability (first compound 0.02 µM) of 0.371, a relative viability (first compound 0.06325 µM) of 0.282 and a relative viability (first compound 0.2 µM) of 0.336. The relative viability (first compound 0.6325 µM) was 0.329 and the relative viability (first compound 2 µM) was 0.35.

For NCI-H1623, the relative viability (first compound 0.02 µM) was 0.544, the relative viability (first compound 0.06325 µM) was 0.676 and the relative viability (first compound 0.2 µM) was 0.531. It also gave a relative viability (first compound 0.6325 µM) of 0.488 and a relative viability (first compound 2 µM) of 0.528.

NCI-H2347 gave a relative viability (first compound 0.02 µM) of 0.36, a relative viability (first compound 0.06325 µM) of 0.365 and a relative viability (first compound 0.2 µM) of 0.301. For the same cell line, the relative viability (first compound 0.6325 µM) was 0.326 and the relative viability (first compound 2 µM) was 0.298.

PC-14 showed a relative viability (first compound 0.02 µM) of 0.281, a relative viability (first compound 0.06325 µM) of 0.303 and a relative viability (first compound 0.2 µM) of 0.297. It also gave a relative viability (first compound 0.6325 µM) of 0.234 and a relative viability (first compound 2 µM) of 0.302.

Cell Line NCI-H1651 has a relative viability (first compound 0.02 µM) of 0.319, a relative viability (first compound 0.06325 µM) of 0.447 and a relative viability (first compound 0.2 µM) of 0.346. It also gave a relative viability (first compound 0.6325 µM) of 0.494 and a relative viability (first compound 2 µM) of 0.462.

In the case of HARA, the relative viability (first compound 0.02 µM) is reported as 0.227, the relative viability (first compound 0.06325 µM) is reported as 0.241 and the relative viability (first compound 0.2 µM) is reported as 0.233. It also gave a relative viability (first compound 0.6325 µM) of 0.256 and a relative viability (first compound 2 µM) of 0.296.

For NCI-H1650, the relative viability (first compound 0.02 µM) was 0.349, the relative viability (first compound 0.06325 µM) was 0.313 and the relative viability (first compound 0.6325 µM) was 0.364. It also gave a relative viability (first compound 2 µM) of 0.396.

Work on NCI-H1395 yielded a relative viability (first compound 0.02 µM) of 0.442, a relative viability (first compound 0.06325 µM) of 0.422 and a relative viability (first compound 0.2 µM) of 0.358. The relative viability (first compound 0.6325 µM) was 0.444 and the relative viability (first compound 2 µM) was 0.39.

LU99A showed a relative viability (first compound 0.02 µM) of 0.505, a relative viability (first compound 0.06325 µM) of 0.602 and a relative viability (first compound 0.2 µM) of 0.538. It also gave a relative viability (first compound 0.6325 µM) of 0.598 and a relative viability (first compound 2 µM) of 0.347.

In the case of NCI-H1355, the relative viability (first compound 0.02 µM) is reported as 0.664, the relative viability (first compound 0.06325 µM) is reported as 0.813 and the relative viability (first compound 0.2 µM) is reported as 0.723. The relative viability (first compound 0.6325 µM) was 0.754 and the relative viability (first compound 2 µM) was 0.756.

HCC-78 gave a relative viability (first compound 0.02 µM) of 0.466, a relative viability (first compound 0.06325 µM) of 0.432 and a relative viability (first compound 0.2 µM) of 0.357. For the same cell line, the relative viability (first compound 0.6325 µM) was 0.425 and the relative viability (first compound 2 µM) was 0.429.

With NCI-H1563 the relative viability (first compound 0.02 µM) was 0.47, the relative viability (first compound 0.06325 µM) was 0.479 and the relative viability (first compound 0.2 µM) was 0.477. It also gave a relative viability (first compound 0.6325 µM) of 0.469 and a relative viability (first compound 2 µM) of 0.525.

HCC-15 showed a relative viability (first compound 0.02 µM) of 0.619, a relative viability (first compound 0.06325 µM) of 0.709 and a relative viability (first compound 0.2 µM) of 0.651. For the same cell line, the relative viability (first compound 0.6325 µM) was 0.632 and the relative viability (first compound 2 µM) was 0.673.

EKVX was tested, and the relative viability (first compound 0.02 µM) was 0.554, the relative viability (first compound 0.06325 µM) was 0.6 and the relative viability (first compound 0.2 µM) was 0.648. It also gave a relative viability (first compound 0.6325 µM) of 0.527 and a relative viability (first compound 2 µM) of 0.488.

For NCI-H2087, the relative viability (first compound 0.02 µM) was 0.862, the relative viability (first compound 0.06325 µM) was 0.854 and the relative viability (first compound 0.2 µM) was 0.928. The relative viability (first compound 0.6325 µM) was 0.762 and the relative viability (first compound 2 µM) was 0.904.

LK-2 showed a relative viability (first compound 0.02 µM) of 0.32, a relative viability (first compound 0.06325 µM) of 0.325 and a relative viability (first compound 0.2 µM) of 0.271. It also gave a relative viability (first compound 0.6325 µM) of 0.266 and a relative viability (first compound 2 µM) of 0.263.

With NCI-H1437 the relative viability (first compound 0.02 µM) was 0.309, the relative viability (first compound 0.06325 µM) was 0.359 and the relative viability (first compound 0.2 µM) was 0.265. It also gave a relative viability (first compound 0.6325 µM) of 0.506 and a relative viability (first compound 2 µM) of 0.526.

Work on COR-L23 yielded a relative viability (first compound 0.02 µM) of 0.481, a relative viability (first compound 0.06325 µM) of 0.504 and a relative viability (first compound 0.2 µM) of 0.566. The relative viability (first compound 0.6325 µM) was 0.481 and the relative viability (first compound 2 µM) was 0.531.

Cell Line ABC-1 has a relative viability (first compound 0.02 µM) of 0.613, a relative viability (first compound 0.06325 µM) of 0.602 and a relative viability (first compound 0.6325 µM) of 0.59. It also gave a relative viability (first compound 2 µM) of 0.49.

NCI-H522 was tested, and the relative viability (first compound 0.06325 µM) was 0.831, the relative viability (first compound 0.2 µM) was 0.874 and the relative viability (first compound 0.6325 µM) was 0.854. It also gave a relative viability (first compound 2 µM) of 0.921.

For NCI-H838, the relative viability (first compound 0.02 µM) was 0.233, the relative viability (first compound 0.06325 µM) was 0.305 and the relative viability (first compound 0.2 µM) was 0.273. The relative viability (first compound 0.6325 µM) was 0.302 and the relative viability (first compound 2 µM) was 0.285.

SW 900 showed a relative viability (first compound 0.06325 µM) of 0.69, a relative viability (first compound 0.2 µM) of 0.852 and a relative viability (first compound 0.6325 µM) of 0.515. It also gave a relative viability (first compound 2 µM) of 0.592.

For A-427, the relative viability (first compound 0.06325 µM) was 0.692, the relative viability (first compound 0.2 µM) was 0.724 and the relative viability (first compound 0.6325 µM) was 0.682. The relative viability (first compound 2 µM) was 0.672.

NCI-H1792 showed a relative viability (first compound 0.02 µM) of 0.605, a relative viability (first compound 0.2 µM) of 0.915 and a relative viability (first compound 0.6325 µM) of 0.836. The relative viability (first compound 2 µM) was 0.726.

LCLC-97TM1 was tested, and the relative viability (first compound 0.02 µM) was 0.901, the relative viability (first compound 0.06325 µM) was 0.809 and the relative viability (first compound 0.2 µM) was 0.797. For the same cell line, the relative viability (first compound 0.6325 µM) was 0.827 and the relative viability (first compound 2 µM) was 0.752.

LCLC-103H showed a relative viability (first compound 0.02 µM) of 0.439, a relative viability (first compound 0.06325 µM) of 0.458 and a relative viability (first compound 0.2 µM) of 0.485. It also gave a relative viability (first compound 0.6325 µM) of 0.465 and a relative viability (first compound 2 µM) of 0.433.

PC-3 [JPC-3] showed a relative viability (first compound 0.02 µM) of 1.08, a relative viability (first compound 0.06325 µM) of 0.981 and a relative viability (first compound 0.2 µM) of 1.02. It also gave a relative viability (first compound 0.6325 µM) of 1.03 and a relative viability (first compound 2 µM) of 1.11.

Work on BEN yielded a relative viability (first compound 0.02 µM) of 0.283, a relative viability (first compound 0.06325 µM) of 0.332 and a relative viability (first compound 0.2 µM) of 0.244. For the same cell line, the relative viability (first compound 0.6325 µM) was 0.333 and the relative viability (first compound 2 µM) was 0.304.

Work on NCI-H1666 yielded a relative viability (first compound 0.02 µM) of 0.814, a relative viability (first compound 0.06325 µM) of 0.793 and a relative viability (first compound 0.2 µM) of 0.881. The relative viability (first compound 0.6325 µM) was 0.814 and the relative viability (first compound 2 µM) was 0.744.

Work on LC-2-ad yielded a relative viability (first compound 0.02 µM) of 0.478, a relative viability (first compound 0.06325 µM) of 0.677 and a relative viability (first compound 0.2 µM) of 0.609. It also gave a relative viability (first compound 0.6325 µM) of 0.714 and a relative viability (first compound 2 µM) of 0.577.

With SK-LU-1 the relative viability (first compound 0.02 µM) was 0.165, the relative viability (first compound 0.06325 µM) was 0.186 and the relative viability (first compound 0.2 µM) was 0.181. For the same cell line, the relative viability (first compound 0.6325 µM) was 0.175 and the relative viability (first compound 2 µM) was 0.181.

With ChaGo-K-1 the relative viability (first compound 0.02 µM) was 0.53, the relative viability (first compound 0.06325 µM) was 0.604 and the relative viability (first compound 0.2 µM) was 0.47. The relative viability (first compound 0.6325 µM) was 0.646 and the relative viability (first compound 2 µM) was 0.579.

COR-L 105 gave a relative viability (first compound 0.02 µM) of 0.388, a relative viability (first compound 0.06325 µM) of 0.426 and a relative viability (first compound 0.2 µM) of 0.362. For the same cell line, the relative viability (first compound 0.6325 µM) was 0.418 and the relative viability (first compound 2 µM) was 0.413.

In the case of NCI-H1975, the relative viability (first compound 0.02 µM) is reported as 0.318, the relative viability (first compound 0.06325 µM) is reported as 0.387 and the relative viability (first compound 0.2 µM) is reported as 0.443. The relative viability (first compound 0.6325 µM) was 0.38 and the relative viability (first compound 2 µM) was 0.387.

NCI-H1993 gave a relative viability (first compound 0.02 µM) of 0.569, a relative viability (first compound 0.06325 µM) of 0.696 and a relative viability (first compound 0.2 µM) of 0.526. It also gave a relative viability (first compound 0.6325 µM) of 0.688 and a relative viability (first compound 2 µM) of 0.631.

RERF-LC-KJ showed a relative viability (first compound 0.02 µM) of 0.809, a relative viability (first compound 0.06325 µM) of 0.985 and a relative viability (first compound 0.2 µM) of 0.835. The relative viability (first compound 0.6325 µM) was 0.878 and the relative viability (first compound 2 µM) was 0.76.

NCI-H23 gave a relative viability (first compound 0.02 µM) of 0.885, a relative viability (first compound 0.06325 µM) of 0.781 and a relative viability (first compound 0.2 µM) of 0.825. The relative viability (first compound 0.6325 µM) was 0.73 and the relative viability (first compound 2 µM) was 0.832.
